In patent US20070111956A1, “Remedy for sarcoidosis and method of treating the same” (Japan Science and Technology Agency, priority 2003, published 2007):
Where a name gives a salt, the structure may show the parent alone.

What was measured:
[1] = system: mice immunized three times with P. acnes; assay: Antibiotic treatment in the mouse pulmonary granuloma (sarcoidosis) model: BAL cell counts and histology; format: in vivo; settings: for decrease of the total number of BAL leukocytes (improved by): percentage in comparison to the control (PBS) group set at 100; for number of CD4+ BAL cells decreased by: two weeks after the third immunization, antibiotics begun before immunization, FIG. 6b
Experimental: Female C57BL/6J mice of 5 to 7 weeks of age were obtained from CLEA Japan (Shizuoka, Japan) or Japan SLC, Inc. (Tokyo, Japan), and kept under specific pathogen-free (SPF) conditions in the animal facility of the Department of Molecular Preventive Medicine, Graduated School of Medicine, the University of Tokyo. All animal experiments were conducted in accordance with the guidelines of the University of Tokyo.
P. acnes-sensitized CD4^+ T cells were isolated from groins of normal mice and mice immunized three times. Immunization was conducted by subcutaneous injection of 400 μg of heat-killed P. acnes (ATCC11828, American Type Culture Collection, Manassas, Va.) and Freund's complete adjuvant (Difco, Detroit, Mich.) into the footpad at 2-week intervals. CD4^+ cells were isolated with the use of MACS system (Miltenyi Biotech, Bergisch Gladbach, Germany) according to manufacturer's instructions. The purity of CD4^+ cell populations was 94% or higher, as confirmed by immunostaining flow cytometry. The isolated CD4^+ cells (2×10^6 cells/PBS 200 μl) were injected into the tail vein of normal mice, and histological analysis of the lungs was conducted two weeks after the injection.
BAL cells were collected by five injections of 0.8 ml of sterile PBS containing 2% FCS (Sigma, St. Louis, Mo.) and 2 mM EDTA. The total number of BAL leukocytes was counted with a hemocytometer. Before the analysis with EPICS Elite instrument (Beckman Coulter, Miami, Fla.), BAL cells were preincubated with rat anti-mouse CD16/CD32 (clone; 2.4G2) mAb to block FcR-mediated binding, and then incubated for […] at 4° C. with FITC-conjugated anti-CD4 (H129.19) mAb and PE-conjugated anti-CD8a (53-6.7) mAb, both from BD Pharmingen.
Minocycline hydrochloride (MINO) (Wyeth Ledele, Tokyo, Japan) and clindamycin (CLDM) (Pharmacia, Tokyo, Japan) were used. On day one, 133 μg of MINO and 1.6 mg of CLDM were administered intratrancheally (i.t.). Subsequently, the same dose of each antibiotic was injected intraperitoneally (i.p.) everyday for one week before immunization, then intraperitoneal injection was conducted three times per week. During the experiment, mice were given water containing each antibiotic at the same dose as mentioned above. Similarly, ampicillin (ABPC), cefazolin sodium (CEZ), gentamicin sulfate (GM), fosfomycin (FOM), clarithromycin (CAM) were used and single dose of these antibiotics was set by calculating the maximum amount for regular use by adults based on their body weight.

[2] = system: indigenous P. acnes in the mouse lung; assay: PCR detection of indigenous P. acnes in the mouse lung after antibiotics; format: in vivo, Propionibacterium acnes; settings: PBS as a control; FIG. 8
Experimental: Samples of 1 μg of total RNA were isolated from the lungs, and regional lymph nodes samples of the lung, the liver, the skin and the pancreas of SPF mice using Trizol (Invitrogen, Groningen, the Netherlands) according to the manufacturer's instructions. Then, RNA samples were reverse transcribed into cDNA, and amplified (J. Exp. Med. 193, 35-49, 2001; J. Clin. Invest. 102, 1933-1941, 1998). PCR products of 16s ribosomal RNA of P. acnes were electrophoresed on 2.5% agarose gel. The bands visualized by ethidium bromide staining were expected size for each mRNA product. Oligonucleotide primers for P. acnes were designed as described previously (J. Clin. Microbiol. 40, 198-204, 2002): forward, 5′-[…]-3′ (SEQ ID NO: 1); reverse, 5′-TTCCGACGCGATCAACCA-3′ (SEQ ID NO: 2). Contamination of P. acnes during the experiment was checked by buffer control. As primers for GAPDH as an internal standard, previously described ones were used (J. Exp. Med. 193, 35-49, 2001). PCR conditions: heated at 95° C. for 5 min, followed by 40 cycles of 95° C. for 30 sec, 58° C. for 60 sec, 72° C. for 60 sec, and finally heated at 72° C. for 10 min.
Minocycline hydrochloride (MINO) (Wyeth Ledele, Tokyo, Japan) and clindamycin (CLDM) (Pharmacia, Tokyo, Japan) were used. On day one, 133 μg of MINO and 1.6 mg of CLDM were administered intratrancheally (i.t.). […]

[3] = Examination for nonspecific immunosuppression (ear swelling, spleen index); format: in vivo, mouse; settings: in comparison to PBS control; FIG. 9

Molecule | effect on BAL cells (FIG. 7), in words ([1]; FIG. 7, in comparison to the control (PBS) group) | indigenous P. acnes in the mouse lung by PCR [2] | size of ear swelling [3] | spleen index [3] | decrease of the total number of BAL leukocytes (improved by) ([1]; FIG. 7) | number of CD4+ BAL cells decreased by [1] | decrease of the total number of BAL leukocytes (improved by), group administered for a short period ([1]; FIG. 7, short: antibiotics initiated one month after treatment of the model (at the last immunization), versus PBS set at 100)
gentamicin sulfate [GM] | no effect | did not decrease so much | – | – | – | – | –
CN(C)c1ccc(O)c2c1C[C@H]1C[C@H]3[C@H](N(C)C)C(O)=C(C(N)=O)C(=O)[C@@]3(O)C(O)=C1C2=O [MINO, minocycline hydrochloride] | – | – | no marked differences | no marked differences | 53.5% | 53.5% | –
CCC[C@@H]1C[C@@H](C(=O)N[C@@H]([C@H]2O[C@H](SC)[C@H](O)[C@@H](O)[C@H]2O)[C@H](C)Cl)N(C)C1 [CLDM, clindamycin] | – | – | no marked differences | no marked differences | 42.1% | 42.1% | 74.3%
CC[C@H]1OC(=O)[C@H](C)[C@@H](O[C@H]2C[C@@](C)(OC)[C@@H](O)[C@H](C)O2)[C@H](C)[C@@H](O[C@@H]2O[C@H](C)C[C@H](N(C)C)[C@H]2O)[C@](C)(OC)C[C@@H](C)C(=O)[C@H](C)[C@@H](O)[C@]1(C)O [CAM, clarithromycin] | – | – | – | – | 48.3% | – | –
CC1(C)S[C@@H]2[C@H](NC(=O)[C@H](N)c3ccccc3)C(=O)N2[C@H]1C(=O)O [ABPC, ampicillin] | – | – | – | – | 46.1% | – | –
